# Patent US11759509B2, “WT1 antigen peptide conjugate vaccine” (Sumitomo Pharma Co., Ltd., priority 2013, dated 2023)
# Positions of bridges follow the written chain, without caps; N, C: chain ends. Residues, ends and D or L forms follow the SMILES beside them. Chains are numbered I, II in the order given. No end group written: not given here.
# Experiments:
# physchem = conditions: for solubility at 90 min: pH 6; for solubility thermodynamic at 90 min: pH 7.4
# Description: Measurement of Solubility
# (§1) 75% aqueous solution of disodium hydrogen phosphate and 5.53% aqueous solution of citric acid were mixed, and respective buffers (pH 6.0 and 7.4) were prepared.
# (§2) About 1 mg of a test product was measured, an isotonic buffer (0.5 mL) was added, and this was used as a test solution. The prepared test solution was shaken at room temperature for 90 min (shaking conditions: RECIPRO SHAKER SR-1N manufactured by TAITEC, Speed=8), centrifuged (15000 rpm, 5 min, room temperature), and the supernatant after centrifugation was used as a test solution.
# (§3) About 1 mg of the test product was accurately measured, dissolved in 0.1% TFA water/acetonitrile=1/1, made the total amount 10 mL, and this was used as a standard solution of the test product.
# (§4) The standard solution of the test product and the test solution were analyzed by HPLC (analysis conditions described in Table 59), and the solubility of the test product was calculated from the peak area ratio of the standard solution.
# (§5) • column: ChemcoPack Quicksorb (4.6 mmφ×150 mm, 5 μm) manufactured by Chemco Scientific Co., Ltd. • mobile phase: SOLUTION A; 0.1% TFA water, SOLUTION B; 0.1% TFA acetonitrile solution • column temperature: room temperature • flow rate: 1 mL/min • detection wavelength: UV 254 nm, 230 nm (2 wavelength detection) • sample injection volume: 10 μL
# ERAP1 = ERAP1 (Homo sapiens, UniProt Q9NZ08); assay: Time-course changes of trimming of N-terminal amino acid by ERAP1; format: biochemical; conditions: room temperature
# ERAP1, sequence (Q9NZ08 whole entry): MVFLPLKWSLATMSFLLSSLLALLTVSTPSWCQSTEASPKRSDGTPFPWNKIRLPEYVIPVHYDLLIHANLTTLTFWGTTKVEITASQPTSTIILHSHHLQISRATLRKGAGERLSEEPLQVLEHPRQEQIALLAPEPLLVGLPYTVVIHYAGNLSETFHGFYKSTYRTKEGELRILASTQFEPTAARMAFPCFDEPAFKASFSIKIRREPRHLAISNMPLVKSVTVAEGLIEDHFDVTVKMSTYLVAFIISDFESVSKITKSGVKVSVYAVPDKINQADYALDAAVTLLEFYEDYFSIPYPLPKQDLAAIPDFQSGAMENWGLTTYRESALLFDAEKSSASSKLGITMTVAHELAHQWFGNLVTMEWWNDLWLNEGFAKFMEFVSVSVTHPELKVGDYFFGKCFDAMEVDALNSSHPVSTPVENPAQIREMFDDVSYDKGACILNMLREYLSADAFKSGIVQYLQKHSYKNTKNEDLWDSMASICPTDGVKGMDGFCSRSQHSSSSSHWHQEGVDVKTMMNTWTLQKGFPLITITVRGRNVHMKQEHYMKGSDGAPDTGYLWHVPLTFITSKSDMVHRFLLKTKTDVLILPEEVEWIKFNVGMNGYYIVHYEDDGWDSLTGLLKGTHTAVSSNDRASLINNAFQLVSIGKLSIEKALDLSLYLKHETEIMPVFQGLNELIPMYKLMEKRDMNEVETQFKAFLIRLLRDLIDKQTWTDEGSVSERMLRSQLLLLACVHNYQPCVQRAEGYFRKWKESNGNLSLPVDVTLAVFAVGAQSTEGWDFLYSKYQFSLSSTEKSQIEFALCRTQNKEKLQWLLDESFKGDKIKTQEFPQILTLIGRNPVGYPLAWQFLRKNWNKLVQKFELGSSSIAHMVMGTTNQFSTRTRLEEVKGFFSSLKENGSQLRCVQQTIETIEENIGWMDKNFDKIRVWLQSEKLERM
# Description: Time-Course Changes of Trimming of N-Terminal Amino Acid by ERAP1
# 30 μl of ERAP1 (2.0 mg/ml) in PBS buffer solution was added to 258 μl of Tris·HCl buffer. DMSO solution (12.0 μl) of 10 mM each peptide was added to the aforementioned ERAP1 solution, and the mixture was blended well and stood at room temperature. 1.0, 2.0, 4.0, 8.0 hr later, 50 μl of a sample was added to 150 μl of MeOH to terminate the reaction, 25 μl was injected into UFLC (analysis conditions shown below), and AUC of the object peptide was determined. […] Concentration of SOLUTION B was raised from 1.0% to 70% from 0.0 min to 5.0 min • 2. Concentration of SOLUTION B was raised from 1.0% to 50% from 0.0 min to 5.0 min • object peptide: […]
# [1] = Measurement of solubility in isotonic buffer (pH 6.0 and 7.4); conditions: isotonic disodium hydrogen phosphate/citric acid buffer
# Description: Measurement of Solubility
# as §1, §2, §3, §4, §5
Compound,solubility at 90 min (physchem) [µg/mL],solubility thermodynamic at 90 min (physchem) [µg/mL],also measured
CSCC[C@H](NC(=O)[C@@H](N)CCCNC(=N)N)C(=O)N[C@@H](Cc1ccccc1)C(=O)N1CCC[C@H]1C(=O)N[C@@H](CC(N)=O)C(=O)N[C@@H](C)C(=O)N1CCC[C@H]1C(=O)N[C@@H](Cc1ccc(O)cc1)C(=O)N[C@@H](CC(C)C)C(=O)O [SEQ ID NO: 2],> 1000,> 1000,
CSCC[C@H](NC(=O)[C@H](CCCNC(=N)N)NC(=O)[C@@H](N)CSSC[C@H](N)C(=O)N[C@@H](CO)C(=O)N[C@@H](CC(C)C)C(=O)NCC(=O)N[C@@H](CCC(=O)O)C(=O)N[C@@H](CCC(N)=O)C(=O)N[C@@H](CCC(N)=O)C(=O)N[C@@H](Cc1ccc(O)cc1)C(=O)N[C@@H](CO)C(=O)N[C@H](C(=O)O)C(C)C)C(=O)N[C@@H](Cc1ccccc1)C(=O)N1CCC[C@H]1C(=O)N[C@@H](CC(N)=O)C(=O)N[C@@H](C)C(=O)N1CCC[C@H]1C(=O)N[C@@H](Cc1ccc(O)cc1)C(=O)N[C@@H](CC(C)C)C(=O)O [formula (3)] (I: H-CRMFPNAPYL-OH / II: H-CSLGEQQYSV-OH; disulfide I:1-II:1),> 1000,> 1000,
CSCC[C@H](NC(=O)[C@H](CCC(N)=O)NC(=O)[C@H](CC(N)=O)NC(=O)[C@H](Cc1c[nH]c2ccccc12)NC(=O)[C@@H](NC(=O)[C@H](Cc1ccc(O)cc1)NC(=O)[C@@H](N)CSSC[C@H](N)C(=O)N[C@@H](CCCNC(=N)N)C(=O)N[C@@H](CCSC)C(=O)N[C@@H](Cc1ccccc1)C(=O)N1CCC[C@H]1C(=O)N[C@@H](CC(N)=O)C(=O)N[C@@H](C)C(=O)N1CCC[C@H]1C(=O)N[C@@H](Cc1ccc(O)cc1)C(=O)N[C@@H](CC(C)C)C(=O)O)[C@@H](C)O)C(=O)N[C@@H](CC(N)=O)C(=O)N[C@@H](CC(C)C)C(=O)O [formula (5)] (I: H-CRMFPNAPYL-OH / II: H-CYTWNQMNL-OH; disulfide I:1-II:1),511,200,
CSCC[C@H](NC(=O)[C@H](CCC(N)=O)NC(=O)[C@H](CC(C)C)NC(=O)[C@H](Cc1c[nH]cn1)NC(=O)[C@H](CO)NC(=O)[C@H](CC(C)C)NC(=O)[C@H](CCCCN)NC(=O)[C@H](Cc1ccccc1)NC(=O)[C@H](Cc1ccc(O)cc1)NC(=O)[C@H](CCCNC(=N)N)NC(=O)[C@H](CCCCN)NC(=O)[C@H](CC(N)=O)NC(=O)[C@@H](N)CSSC[C@H](N)C(=O)N[C@@H](CCCNC(=N)N)C(=O)N[C@@H](CCSC)C(=O)N[C@@H](Cc1ccccc1)C(=O)N1CCC[C@H]1C(=O)N[C@@H](CC(N)=O)C(=O)N[C@@H](C)C(=O)N1CCC[C@H]1C(=O)N[C@@H](Cc1ccc(O)cc1)C(=O)N[C@@H](CC(C)C)C(=O)O)C(=O)N[C@@H](Cc1c[nH]cn1)C(=O)N[C@@H](CO)C(=O)N[C@@H](CCCNC(=N)N)C(=O)N[C@@H](CCCCN)C(=O)N[C@@H](Cc1c[nH]cn1)C(=O)N[C@H](C(=O)NCC(=O)O)[C@@H](C)O [formula (6)] (I: H-CNKRYFKLSHLQMHSRKHTG-OH / II: H-CRMFPNAPYL-OH; disulfide I:1-II:1),> 1000,279,
CSCC[C@H](NC(=O)[C@H](CCC(N)=O)NC(=O)[C@H](CC(C)C)NC(=O)[C@H](Cc1c[nH]cn1)NC(=O)[C@H](CO)NC(=O)[C@H](CC(C)C)NC(=O)[C@H](CCCCN)NC(=O)[C@H](Cc1ccccc1)NC(=O)[C@H](Cc1ccc(O)cc1)NC(=O)[C@H](CCCNC(=N)N)NC(=O)[C@H](CCCCN)NC(=O)[C@H](CC(N)=O)NC(=O)[C@@H](N)CSSC[C@H](N)C(=O)N[C@@H](CCCNC(=N)N)C(=O)N[C@@H](CCSC)C(=O)N[C@@H](Cc1ccccc1)C(=O)N1CCC[C@H]1C(=O)N[C@@H](CC(N)=O)C(=O)N[C@@H](C)C(=O)N1CCC[C@H]1C(=O)N[C@@H](Cc1ccc(O)cc1)C(=O)N[C@@H](CC(C)C)C(=O)O)C(=O)N[C@@H](Cc1c[nH]cn1)C(=O)N[C@@H](CO)C(=O)N[C@@H](CCCNC(=N)N)C(=O)N[C@@H](CCCCN)C(=O)O [formula (8)] (I: H-CNKRYFKLSHLQMHSRK-OH / II: H-CRMFPNAPYL-OH; disulfide I:1-II:1),> 1000,789,
CSCC[C@H](NC(=O)[C@H](CCC(N)=O)NC(=O)[C@H](CC(C)C)NC(=O)[C@H](Cc1c[nH]cn1)NC(=O)[C@H](CO)NC(=O)[C@H](CC(C)C)NC(=O)[C@H](CCCCN)NC(=O)[C@H](Cc1ccccc1)NC(=O)[C@H](Cc1ccc(O)cc1)NC(=O)[C@H](CCCNC(=N)N)NC(=O)[C@H](CCCCN)NC(=O)[C@H](CC(N)=O)NC(=O)[C@@H](N)CSSC[C@H](N)C(=O)N[C@@H](C)C(=O)N[C@@H](CC(C)C)C(=O)N[C@@H](CC(C)C)C(=O)N1CCC[C@H]1C(=O)N[C@@H](C)C(=O)N[C@H](C(=O)N1CCC[C@H]1C(=O)N[C@@H](CO)C(=O)N[C@@H](CC(C)C)C(=O)O)C(C)C)C(=O)N[C@@H](Cc1c[nH]cn1)C(=O)N[C@@H](CO)C(=O)N[C@@H](CCCNC(=N)N)C(=O)N[C@@H](CCCCN)C(=O)N[C@@H](Cc1c[nH]cn1)C(=O)N[C@H](C(=O)NCC(=O)O)[C@@H](C)O [formula (9)] (I: H-CNKRYFKLSHLQMHSRKHTG-OH / II: H-CALLPAVPSL-OH; disulfide I:1-II:1),> 1000,565,
CALLPAVPSL [Example 3],,,"formation rate (%) of the peptide obtained by trimming, 1 hr later (ERAP1): 65.5%; formation rate (%) of the peptide obtained by trimming, 2 hr later (ERAP1): 50.6%; formation rate (%) of the peptide obtained by trimming, 4 hr later (ERAP1): 13.5%; formation rate (%) of the peptide obtained by trimming, 8 hr later (ERAP1): 0%"
CRVPGVAPTL [Example 4],,,"formation rate (%) of the peptide obtained by trimming, 1 hr later (ERAP1): 59.1%; formation rate (%) of the peptide obtained by trimming, 2 hr later (ERAP1): 57.5%; formation rate (%) of the peptide obtained by trimming, 4 hr later (ERAP1): 30.1%; formation rate (%) of the peptide obtained by trimming, 8 hr later (ERAP1): 7.80%"
CSLGEQQYSV [Example 5],,,"formation rate (%) of the peptide obtained by trimming, 1 hr later (ERAP1): 77.6%; formation rate (%) of the peptide obtained by trimming, 2 hr later (ERAP1): 72.8%; formation rate (%) of the peptide obtained by trimming, 4 hr later (ERAP1): 46.0%; formation rate (%) of the peptide obtained by trimming, 8 hr later (ERAP1): 7.90%"
CYTWNQMNL [SEQ ID NO: 4],,,solubility at 90 min ([1]; pH 6): 106 µg/mL; solubility thermodynamic at 90 min ([1]; pH 7.4): 167 µg/mL

# Further lines, with some results ahead:
solubility at 90 min (physchem) [µg/mL],solubility thermodynamic at 90 min (physchem) [µg/mL],Compound,also measured
> 1000,> 1000,ALLPAVPSL [SEQ ID NO: 5],
> 1000,931,CNKRYFKLSHLQMHSRK [SEQ ID NO: 22],
> 1000,712,CNKRYFKLSHLQMHSRKH [SEQ ID NO: 23],
> 1000,556,CNKRYFKLSHLQMHSRKHTG [SEQ ID NO: 24],
> 1000,> 1000,SLGEQQYSV [SEQ ID NO: 6],
